Here are results for four compounds from article PMC7026418, “The kinase polypharmacology landscape of clinical PARP inhibitors” (Scientific Reports, 2020).

Like-named read-outs stand apart in the source and are kept apart here.

Assay in all cases: biochemical
Holding throughout (set-up): DiscoveRx KINOMEscan active site-directed competition binding; percent of control kinase bound to immobilised ligand

In one experiment the target is CAMKK2 (Homo sapiens, UniProt Q96RR4).
For another experiment, the target named is T1, HUNK (Homo sapiens, UniProt P57058).
T1 sequence (P57058 1-714): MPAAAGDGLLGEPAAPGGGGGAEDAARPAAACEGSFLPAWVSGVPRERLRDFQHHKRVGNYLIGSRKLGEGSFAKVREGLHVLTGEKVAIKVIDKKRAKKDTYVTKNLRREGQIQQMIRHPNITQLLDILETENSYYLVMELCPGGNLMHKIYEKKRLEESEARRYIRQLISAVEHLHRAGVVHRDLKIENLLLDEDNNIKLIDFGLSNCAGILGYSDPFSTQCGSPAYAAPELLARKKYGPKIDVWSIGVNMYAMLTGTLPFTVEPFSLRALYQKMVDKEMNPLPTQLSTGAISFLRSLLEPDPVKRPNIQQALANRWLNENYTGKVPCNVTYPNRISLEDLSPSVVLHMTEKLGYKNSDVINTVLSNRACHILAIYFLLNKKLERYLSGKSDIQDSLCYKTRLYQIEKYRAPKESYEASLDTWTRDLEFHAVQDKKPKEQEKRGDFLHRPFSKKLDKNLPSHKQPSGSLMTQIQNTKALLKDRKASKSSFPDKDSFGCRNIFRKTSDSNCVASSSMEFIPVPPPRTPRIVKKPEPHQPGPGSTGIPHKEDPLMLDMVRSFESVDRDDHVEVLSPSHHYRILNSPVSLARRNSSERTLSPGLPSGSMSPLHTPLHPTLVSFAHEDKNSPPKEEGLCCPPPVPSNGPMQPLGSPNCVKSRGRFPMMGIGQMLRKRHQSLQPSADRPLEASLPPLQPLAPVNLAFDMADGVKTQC

For another experiment, the target named is T2, NIK (Homo sapiens, UniProt Q99558).
T2 construct: gene MAP3K14

Another experiment concerns the target T3, NLK (Homo sapiens, UniProt Q9UBE8).
T3 sequence (Q9UBE8 1-527): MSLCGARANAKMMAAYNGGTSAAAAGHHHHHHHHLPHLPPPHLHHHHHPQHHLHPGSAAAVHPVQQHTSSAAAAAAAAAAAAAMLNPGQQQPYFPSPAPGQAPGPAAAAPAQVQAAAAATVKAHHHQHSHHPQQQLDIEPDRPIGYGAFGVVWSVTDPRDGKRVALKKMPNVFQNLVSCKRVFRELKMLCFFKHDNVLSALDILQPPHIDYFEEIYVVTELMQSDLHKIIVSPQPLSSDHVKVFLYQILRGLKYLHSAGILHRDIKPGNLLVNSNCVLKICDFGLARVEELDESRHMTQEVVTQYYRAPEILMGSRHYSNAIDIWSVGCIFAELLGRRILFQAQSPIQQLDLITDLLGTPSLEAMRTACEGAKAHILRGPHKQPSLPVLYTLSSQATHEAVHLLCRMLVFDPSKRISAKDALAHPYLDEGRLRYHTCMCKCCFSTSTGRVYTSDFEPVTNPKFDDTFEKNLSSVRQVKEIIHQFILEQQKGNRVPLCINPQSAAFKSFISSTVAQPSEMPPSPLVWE

A further experiment concerns the target PHKG1 (Homo sapiens, UniProt Q16816).
The next experiment deals with T4, PIK4CB (Homo sapiens, UniProt Q9UBF8).
T4 construct: gene PI4KB

The next experiment concerns the target T5, PYK2 (Homo sapiens, UniProt Q14289).
T5 construct: gene PTK2B

The target of another experiment is T6, TXK (Homo sapiens, UniProt P42681).
T6 sequence (P42681 1-527): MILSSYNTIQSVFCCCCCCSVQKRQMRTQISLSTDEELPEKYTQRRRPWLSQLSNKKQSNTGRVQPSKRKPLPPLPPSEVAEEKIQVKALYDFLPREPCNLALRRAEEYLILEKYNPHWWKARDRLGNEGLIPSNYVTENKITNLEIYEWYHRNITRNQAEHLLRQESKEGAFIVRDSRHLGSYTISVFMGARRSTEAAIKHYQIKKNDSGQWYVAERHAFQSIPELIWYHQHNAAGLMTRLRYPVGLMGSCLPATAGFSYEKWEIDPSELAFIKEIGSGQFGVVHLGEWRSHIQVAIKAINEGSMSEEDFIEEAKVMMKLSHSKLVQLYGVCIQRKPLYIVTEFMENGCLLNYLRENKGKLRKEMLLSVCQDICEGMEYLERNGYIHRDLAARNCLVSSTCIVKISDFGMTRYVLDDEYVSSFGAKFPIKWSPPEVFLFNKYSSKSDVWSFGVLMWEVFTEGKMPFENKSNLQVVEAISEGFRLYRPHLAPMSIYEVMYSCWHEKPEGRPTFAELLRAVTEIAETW

The target of the next experiment is T7, VPS34 (Homo sapiens, UniProt Q8NEB9).
T7 construct: gene PIK3C3

In the next experiment the target is T8, YANK1 (Homo sapiens, UniProt Q8WU08).
T8 construct: gene STK32A

[1] abbreviates: read-out: Rucaparib / %Ctrl @ 10000nM, binding competition, % of control.
[2] abbreviates: read-out: Talazoparib (BMN 673) / %Ctrl @ 10000nM.
Setting [3] is: read-out: Niraparib (MK-4827) / %Ctrl @ 10000nM.
Where [4] appears, read: read-out: Olaparib / %Ctrl @ 10000nM.

T8 sequence (Q8WU08 whole entry): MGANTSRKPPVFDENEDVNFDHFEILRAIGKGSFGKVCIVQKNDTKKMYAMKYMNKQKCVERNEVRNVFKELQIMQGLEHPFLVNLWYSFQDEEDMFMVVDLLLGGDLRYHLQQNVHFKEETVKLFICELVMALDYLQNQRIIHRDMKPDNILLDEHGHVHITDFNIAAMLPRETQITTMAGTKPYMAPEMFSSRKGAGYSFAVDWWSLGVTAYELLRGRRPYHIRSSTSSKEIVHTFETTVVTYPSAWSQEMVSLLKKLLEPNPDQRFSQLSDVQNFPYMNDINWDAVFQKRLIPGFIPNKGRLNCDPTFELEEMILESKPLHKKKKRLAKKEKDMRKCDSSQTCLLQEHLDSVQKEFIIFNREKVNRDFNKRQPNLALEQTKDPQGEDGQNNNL
T4 sequence (Q9UBF8 whole entry): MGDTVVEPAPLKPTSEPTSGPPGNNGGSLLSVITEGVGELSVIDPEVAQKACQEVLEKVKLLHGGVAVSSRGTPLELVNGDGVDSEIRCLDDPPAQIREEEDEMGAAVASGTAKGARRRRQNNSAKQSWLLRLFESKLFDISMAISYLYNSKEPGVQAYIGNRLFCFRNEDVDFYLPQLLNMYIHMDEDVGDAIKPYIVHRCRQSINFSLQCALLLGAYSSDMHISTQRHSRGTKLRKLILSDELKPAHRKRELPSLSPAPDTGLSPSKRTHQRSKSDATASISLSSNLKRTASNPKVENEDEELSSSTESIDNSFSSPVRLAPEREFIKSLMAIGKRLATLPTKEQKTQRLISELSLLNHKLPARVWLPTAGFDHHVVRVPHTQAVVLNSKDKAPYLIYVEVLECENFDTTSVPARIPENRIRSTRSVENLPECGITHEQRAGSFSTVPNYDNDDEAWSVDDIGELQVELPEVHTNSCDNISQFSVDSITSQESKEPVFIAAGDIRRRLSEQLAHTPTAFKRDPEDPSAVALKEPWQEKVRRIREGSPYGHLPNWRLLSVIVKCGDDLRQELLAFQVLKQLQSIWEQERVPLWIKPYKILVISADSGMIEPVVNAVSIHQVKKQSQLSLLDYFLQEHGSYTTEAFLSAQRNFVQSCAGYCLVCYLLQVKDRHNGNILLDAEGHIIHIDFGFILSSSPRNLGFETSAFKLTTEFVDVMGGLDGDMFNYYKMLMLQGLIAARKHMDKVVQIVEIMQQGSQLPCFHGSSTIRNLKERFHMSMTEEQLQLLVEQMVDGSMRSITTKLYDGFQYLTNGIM
T5 sequence (Q14289 whole entry): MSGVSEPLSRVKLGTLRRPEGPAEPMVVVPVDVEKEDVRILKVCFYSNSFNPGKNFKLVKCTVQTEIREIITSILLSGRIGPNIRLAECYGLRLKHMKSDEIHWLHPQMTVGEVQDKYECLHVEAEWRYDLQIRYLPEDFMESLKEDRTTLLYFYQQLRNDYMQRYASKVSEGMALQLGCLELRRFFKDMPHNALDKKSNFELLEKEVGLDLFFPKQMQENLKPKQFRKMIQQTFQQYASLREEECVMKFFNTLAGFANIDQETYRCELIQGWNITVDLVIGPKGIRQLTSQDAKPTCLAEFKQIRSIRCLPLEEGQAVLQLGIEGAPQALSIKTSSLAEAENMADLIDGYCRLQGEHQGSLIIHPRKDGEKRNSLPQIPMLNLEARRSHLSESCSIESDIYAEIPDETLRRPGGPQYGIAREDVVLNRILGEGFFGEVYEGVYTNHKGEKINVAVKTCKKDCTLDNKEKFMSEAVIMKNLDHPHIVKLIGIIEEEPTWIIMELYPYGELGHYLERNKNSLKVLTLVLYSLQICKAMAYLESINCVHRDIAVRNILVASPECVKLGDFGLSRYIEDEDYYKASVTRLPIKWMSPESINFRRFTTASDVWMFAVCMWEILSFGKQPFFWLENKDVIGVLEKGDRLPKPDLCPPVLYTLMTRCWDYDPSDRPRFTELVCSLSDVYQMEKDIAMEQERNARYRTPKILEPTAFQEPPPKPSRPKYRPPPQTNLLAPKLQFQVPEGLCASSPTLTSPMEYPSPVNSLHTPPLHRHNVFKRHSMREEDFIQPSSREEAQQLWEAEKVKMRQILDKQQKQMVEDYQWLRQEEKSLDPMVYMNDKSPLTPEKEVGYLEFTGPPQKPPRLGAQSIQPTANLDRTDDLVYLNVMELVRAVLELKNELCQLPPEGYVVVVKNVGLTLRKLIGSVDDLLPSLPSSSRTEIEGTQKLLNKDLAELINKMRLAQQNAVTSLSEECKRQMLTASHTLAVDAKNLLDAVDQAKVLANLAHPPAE
T7 sequence (Q8NEB9 whole entry): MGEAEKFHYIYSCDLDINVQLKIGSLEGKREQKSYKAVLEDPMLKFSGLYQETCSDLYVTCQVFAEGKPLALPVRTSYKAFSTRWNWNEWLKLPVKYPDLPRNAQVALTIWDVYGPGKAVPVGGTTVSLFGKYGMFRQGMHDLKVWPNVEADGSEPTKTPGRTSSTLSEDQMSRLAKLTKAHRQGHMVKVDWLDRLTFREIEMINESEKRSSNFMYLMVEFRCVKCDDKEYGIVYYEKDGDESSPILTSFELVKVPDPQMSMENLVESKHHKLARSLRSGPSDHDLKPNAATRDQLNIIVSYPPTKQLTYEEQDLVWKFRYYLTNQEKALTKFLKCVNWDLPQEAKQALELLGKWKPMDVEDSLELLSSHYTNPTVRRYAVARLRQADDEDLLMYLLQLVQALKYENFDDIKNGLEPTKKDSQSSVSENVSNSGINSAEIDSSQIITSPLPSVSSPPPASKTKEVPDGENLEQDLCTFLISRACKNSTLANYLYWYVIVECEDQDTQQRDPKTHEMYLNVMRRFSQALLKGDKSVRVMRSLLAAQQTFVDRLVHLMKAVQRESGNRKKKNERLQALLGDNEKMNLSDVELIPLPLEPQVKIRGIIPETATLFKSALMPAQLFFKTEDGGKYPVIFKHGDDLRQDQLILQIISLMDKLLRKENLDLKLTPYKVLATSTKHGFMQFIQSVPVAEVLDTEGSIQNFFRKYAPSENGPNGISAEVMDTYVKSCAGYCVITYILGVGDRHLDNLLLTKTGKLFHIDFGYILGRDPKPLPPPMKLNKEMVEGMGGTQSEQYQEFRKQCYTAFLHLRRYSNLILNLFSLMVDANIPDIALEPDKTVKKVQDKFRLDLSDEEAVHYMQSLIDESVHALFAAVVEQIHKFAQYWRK
CAMKK2, sequence (Q96RR4 whole entry): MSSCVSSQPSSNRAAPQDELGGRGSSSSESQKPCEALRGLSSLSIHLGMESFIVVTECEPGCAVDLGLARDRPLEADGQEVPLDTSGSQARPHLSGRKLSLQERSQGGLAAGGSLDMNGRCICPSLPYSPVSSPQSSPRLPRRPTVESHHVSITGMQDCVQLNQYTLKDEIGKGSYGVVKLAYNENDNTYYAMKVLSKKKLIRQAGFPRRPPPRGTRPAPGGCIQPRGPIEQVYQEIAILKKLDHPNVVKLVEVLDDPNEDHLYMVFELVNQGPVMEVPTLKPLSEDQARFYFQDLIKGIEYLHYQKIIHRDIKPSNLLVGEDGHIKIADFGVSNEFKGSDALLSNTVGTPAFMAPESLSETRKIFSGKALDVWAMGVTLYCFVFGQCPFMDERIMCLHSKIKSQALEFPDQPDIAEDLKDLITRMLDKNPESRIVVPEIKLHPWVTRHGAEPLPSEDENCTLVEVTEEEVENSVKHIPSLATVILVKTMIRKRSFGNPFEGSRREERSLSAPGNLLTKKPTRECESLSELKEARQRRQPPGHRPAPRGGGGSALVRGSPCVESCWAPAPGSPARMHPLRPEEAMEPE
PHKG1, sequence (Q16816 whole entry): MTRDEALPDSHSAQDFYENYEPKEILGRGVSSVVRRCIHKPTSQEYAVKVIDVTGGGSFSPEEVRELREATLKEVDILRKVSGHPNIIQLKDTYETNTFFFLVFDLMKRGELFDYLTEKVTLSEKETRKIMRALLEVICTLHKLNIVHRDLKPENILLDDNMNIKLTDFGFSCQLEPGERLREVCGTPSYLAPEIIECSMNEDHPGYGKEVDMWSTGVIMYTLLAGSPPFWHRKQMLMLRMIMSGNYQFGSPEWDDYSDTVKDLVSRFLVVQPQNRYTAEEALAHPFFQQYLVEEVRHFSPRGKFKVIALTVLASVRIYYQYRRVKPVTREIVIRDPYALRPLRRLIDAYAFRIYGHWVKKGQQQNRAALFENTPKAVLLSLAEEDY
T2 sequence (Q99558 whole entry): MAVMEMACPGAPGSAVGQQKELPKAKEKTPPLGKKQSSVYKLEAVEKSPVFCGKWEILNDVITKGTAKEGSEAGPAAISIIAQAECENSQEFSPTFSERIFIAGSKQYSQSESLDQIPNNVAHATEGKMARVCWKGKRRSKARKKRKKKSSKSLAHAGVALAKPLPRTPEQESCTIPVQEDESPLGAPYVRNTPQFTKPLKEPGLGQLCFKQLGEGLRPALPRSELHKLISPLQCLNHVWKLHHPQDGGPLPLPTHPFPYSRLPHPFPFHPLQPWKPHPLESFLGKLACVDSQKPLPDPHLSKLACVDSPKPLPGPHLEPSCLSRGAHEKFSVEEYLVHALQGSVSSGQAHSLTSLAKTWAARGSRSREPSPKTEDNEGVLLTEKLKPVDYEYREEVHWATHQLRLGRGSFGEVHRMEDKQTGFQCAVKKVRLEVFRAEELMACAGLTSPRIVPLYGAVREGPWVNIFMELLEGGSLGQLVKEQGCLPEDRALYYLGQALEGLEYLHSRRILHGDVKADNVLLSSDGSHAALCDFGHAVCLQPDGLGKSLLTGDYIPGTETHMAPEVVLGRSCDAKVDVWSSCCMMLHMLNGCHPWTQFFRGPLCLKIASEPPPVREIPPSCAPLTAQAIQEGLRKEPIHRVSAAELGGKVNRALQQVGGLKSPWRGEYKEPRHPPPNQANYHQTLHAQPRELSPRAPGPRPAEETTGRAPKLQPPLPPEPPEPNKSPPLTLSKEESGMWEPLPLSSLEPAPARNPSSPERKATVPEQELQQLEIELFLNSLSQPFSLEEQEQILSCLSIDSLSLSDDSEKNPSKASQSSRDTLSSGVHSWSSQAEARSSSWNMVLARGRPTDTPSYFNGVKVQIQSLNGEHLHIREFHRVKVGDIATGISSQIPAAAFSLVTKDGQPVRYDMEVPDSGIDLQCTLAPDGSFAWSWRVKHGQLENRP

With `CNCc1ccc(-c2[nH]c3cc(F)cc4c3c2CCNC4=O)cc1` [Rucaparib], the percent of control binding at 10 µM turned out to be 70% on CAMKK2 (setting [1]); 100% on HUNK (setting [1]); 74% on NIK (setting [1]); 78% at NLK (setting [1]); 87% on PHKG1 (setting [1]); 78% on PIK4CB (setting [1]). For the same compound, the percent of control binding at 10 µM on PYK2 (setting [1]) is 100%; on TXK (setting [1]) it was 100%; at VPS34 (setting [1]), 80%; on YANK1 (setting [1]), 69%.
Turning to `Cn1ncnc1[C@H]1c2n[nH]c(=O)c3cc(F)cc(c23)N[C@@H]1c1ccc(F)cc1` [Talazoparib], the percent of control binding at 10 µM was 97% on CAMKK2 (setting [2]); 100% on HUNK (setting [2]); 100% at NIK (setting [2]); 100% on NLK (setting [2]); 90% on PHKG1 (setting [2]); 81% at PIK4CB (setting [2]). For the same compound, the percent of control binding at 10 µM came out at 97% at PYK2 (setting [2]), 91% at TXK (setting [2]), 100% at VPS34 (setting [2]) and 100% on YANK1 (setting [2]).
Consider `NC(=O)c1cccc2cn(-c3ccc([C@@H]4CCCNC4)cc3)nc12` [Niraparib], for which the percent of control binding at 10 µM at CAMKK2 (setting [3]) came out at 81%; on HUNK (setting [3]), 98%; at NIK (setting [3]), 100%; at NLK (setting [3]), 100%; at PHKG1 (setting [3]) it was 100%; at PIK4CB (setting [3]), 94%. Also, the percent of control binding at 10 µM on PYK2 (setting [3]) was 86%; on TXK (setting [3]) it was 86%; at VPS34 (setting [3]) it was 14%; at YANK1 (setting [3]) it was 99%.
Regarding `O=C(c1cc(Cc2n[nH]c(=O)c3ccccc23)ccc1F)N1CCN(C(=O)C2CC2)CC1` [Olaparib], the percent of control binding at 10 µM came to 99% at CAMKK2 (setting [4]); 88% at HUNK (setting [4]); 89% on NIK (setting [4]); 85% on NLK (setting [4]); 100% at PHKG1 (setting [4]); 94% on PIK4CB (setting [4]). Moreover, the percent of control binding at 10 µM on PYK2 (setting [4]) was determined as 99%; at TXK (setting [4]) it was 86%; on VPS34 (setting [4]), 90%; on YANK1 (setting [4]), 86%.
